The results in this text go back to patent publication US20220323406A1, “METHODS AND COMPOSITIONS FOR DIFFERENTIATING STEM CELLS” (Massachusetts Institute of Technology, priority 2019, published 2022).

The test system of test [1] is ENR+CD organoids (ISC to Paneth cell differentiation). The test is described as follows: Primary screen: basal (non-stimulated) lysozyme secretion LYZ.NS, 2.5-D 384-well ENR+CD organoid differentiation. The class given is cell-based, mouse. The following applies: primary screen; for Z.LYZ.NS: standard z score. An excerpt: (§1) High-throughput screening.
For test [2] the test system is unchanged. The test is described as follows: Primary screen: CCh-stimulated lysozyme secretion LYZ.S, 2.5-D 384-well ENR+CD organoid differentiation. The note with it: primary screen. It counts as cell-based, mouse.
Source text: as §1

The test system of the next test is ENR+CD organoids. Kind of test: Primary screen: ATP (CellTiter-Glo 3D, CTG) cell number/viability, 2.5-D 384-well ENR+CD organoids.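 As to all read-outs here: compounds given at plating and again on day 3 over a 6-day differentiation from ENR+CV stem-cell-enriched precursors, ATP measured on day 6, plate median as control.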 The note with it: primary screen; for Z.CTG: standard z score.
Where [3] appears, read: dose 0.08 uM, FC vs plate median.
Where [4] appears, read: dose 0.40 uM, FC vs plate median.
Where [5] appears, read: dose 2.00 uM, FC vs plate median.
Setting [6] is: dose 10.00 uM, FC vs plate median.
Setting [7] is: dose 0.08 uM, FC relative to plate median.
Setting [8] is: dose 0.40 uM, FC relative to plate median.
The mark [9] stands for this setting: dose 2.00 uM, FC relative to plate median.
The mark [10] stands for this setting: dose 10.00 uM, FC relative to plate median.

Regarding `COc1ccccc1S(=O)(=O)Nc1ccc2c(c1)CN(C)C(=O)N2` [PFI-1 (PF-6405761)], the Z.LYZ.NS was 0.538 in test [1] (dose 0.08 uM), 0.691 in test [1] (dose 0.40 uM), −0.852 in test [1] (dose 2.00 uM) and −0.573 in test [1] (dose 10.00 uM). The Dose.FC.LYZ.NS is given as 0.062 log2 fold change in test [1] (setting [3]), 0.079 log2 fold change in test [1] (setting [4]), −0.098 log2 fold change in test [1] (setting [5]) and −0.066 log2 fold change in test [1] (setting [6]). Also, the Dose.FC.LYZ.S in test [2] (setting [3]) is reported as 0.061 log2 fold change; in test [2] (setting [4]), 0.104 log2 fold change; in test [2] (setting [5]), −0.117 log2 fold change; in test [2] (setting [6]), −0.194 log2 fold change. Further, the Z.CTG is reported as 0.340 in the test with ENR+CD organoids (dose 0.08 uM), 0.931 in the test with ENR+CD organoids (dose 0.40 uM), 0.770 with ENR+CD organoids (dose 2.00 uM) and −0.929 in the test on ENR+CD organoids (dose 10.00 uM). Also, the Dose.FC.CTG is 0.142 log2 fold change in the test with ENR+CD organoids (setting [3]), 0.390 log2 fold change in the test with ENR+CD organoids (setting [4]), 0.322 log2 fold change in the test on ENR+CD organoids (setting [5]) and −0.389 log2 fold change with ENR+CD organoids (setting [6]).

`Cc1cc(Nc2cc(N3CCN(C)CC3)nc(Sc3ccc(NC(=O)C4CC4)cc3)n2)n[nH]1` [VX-680 (Tozasertib, MK-0457)]: the Dose.FC.LYZ.NS is given as −0.043 log2 fold change in test [1] (dose 0.08 uM), −0.151 log2 fold change in test [1] (dose 0.40 uM), −0.166 log2 fold change in test [1] (dose 2.00 uM) and −0.238 log2 fold change in test [1] (dose 10.00 uM). Moreover, the “Z.LYZ.NS (standard z score)” value is on record as −0.371 in test [1] (dose 0.08 uM), −1.317 in test [1] (dose 0.40 uM), −1.450 in test [1] (dose 2.00 uM) and −2.069 in test [1] (dose 10.00 uM). The Dose.FC.LYZ.S in test [2] (dose 0.08 uM) is listed as −0.078 log2 fold change; in test [2] (dose 0.40 uM) it was −0.245 log2 fold change; in test [2] (dose 2.00 uM) it was −0.308 log2 fold change; in test [2] (dose 10.00 uM), −0.342 log2 fold change. Besides, the Dose.FC.CTG in the test on ENR+CD organoids (dose 0.08 uM) is listed as −0.150 log2 fold change; with ENR+CD organoids (dose 0.40 uM) it was −0.596 log2 fold change; in the test with ENR+CD organoids (dose 2.00 uM) it was −0.706 log2 fold change; in the test with ENR+CD organoids (dose 10.00 uM), −0.959 log2 fold change. In addition, the “Z.CTG (standard z score)” value in the test on ENR+CD organoids (dose 0.08 uM) is reported as −0.359; with ENR+CD organoids (dose 0.40 uM), −1.425; with ENR+CD organoids (dose 2.00 uM), −1.686; in the test with ENR+CD organoids (dose 10.00 uM), −2.291.

For `CC1(C)CCC(c2ccc(Cl)cc2)=C(CN2CCN(c3ccc(C(=O)NS(=O)(=O)c4ccc(N[C@H](CCN5CCOCC5)CSc5ccccc5)c(S(=O)(=O)C(F)(F)F)c4)cc3)CC2)C1` [ABT-263 (Navitoclax)], the Dose.FC.LYZ.NS in test [1] (dose 0.08 uM) was 0.012 log2 fold change; in test [1] (dose 0.40 uM), 0.007 log2 fold change; in test [1] (dose 2.00 uM) it was −0.143 log2 fold change; in test [1] (dose 10.00 uM), −0.259 log2 fold change. Also, the “Z.LYZ.NS (standard z score)” value is reported as 0.104 in test [1] (dose 0.08 uM), 0.062 in test [1] (dose 0.40 uM), −1.248 in test [1] (dose 2.00 uM) and −2.259 in test [1] (dose 10.00 uM). Moreover, the Dose.FC.LYZ.S is −0.010 log2 fold change in test [2] (dose 0.08 uM), −0.020 log2 fold change in test [2] (dose 0.40 uM), −0.205 log2 fold change in test [2] (dose 2.00 uM) and −0.400 log2 fold change in test [2] (dose 10.00 uM). For the same compound, the Dose.FC.CTG with ENR+CD organoids (dose 0.08 uM) was −0.212 log2 fold change; in the test with ENR+CD organoids (dose 0.40 uM) it was −0.264 log2 fold change; with ENR+CD organoids (dose 2.00 uM) it was −0.368 log2 fold change; with ENR+CD organoids (dose 10.00 uM), −0.962 log2 fold change. Besides, the “Z.CTG (standard z score)” value in the test on ENR+CD organoids (dose 0.08 uM) is −0.507; in the test on ENR+CD organoids (dose 0.40 uM), −0.631; in the test with ENR+CD organoids (dose 2.00 uM), −0.878; in the test with ENR+CD organoids (dose 10.00 uM) it was −2.298.

In the case of VU 0364439, the Dose.FC.LYZ.NS in test [1] (dose 0.08 uM) is recorded as 0.082 log2 fold change; in test [1] (dose 0.40 uM) it was 0.011 log2 fold change; in test [1] (dose 2.00 uM) it was 0.010 log2 fold change; in test [1] (dose 10.00 uM), −0.055 log2 fold change. Besides, the “Z.LYZ.NS (standard z score)” value was 0.715 in test [1] (dose 0.08 uM), 0.099 in test [1] (dose 0.40 uM), 0.089 in test [1] (dose 2.00 uM) and −0.476 in test [1] (dose 10.00 uM). The Dose.FC.LYZ.S in test [2] (dose 0.08 uM) is 0.108 log2 fold change; in test [2] (dose 0.40 uM), 0.124 log2 fold change; in test [2] (dose 2.00 uM) it was −0.043 log2 fold change; in test [2] (dose 10.00 uM), −0.038 log2 fold change. Besides, the Dose.FC.CTG in the test on ENR+CD organoids (dose 0.08 uM) is listed as 0.024 log2 fold change; in the test with ENR+CD organoids (dose 0.40 uM) it was −0.121 log2 fold change; in the test on ENR+CD organoids (dose 2.00 uM), −0.258 log2 fold change; with ENR+CD organoids (dose 10.00 uM) it was 0.009 log2 fold change. Besides, the “Z.CTG (standard z score)” value in the test with ENR+CD organoids (dose 0.08 uM) is given as 0.058; with ENR+CD organoids (dose 0.40 uM), −0.289; with ENR+CD organoids (dose 2.00 uM), −0.616; in the test with ENR+CD organoids (dose 10.00 uM) it was 0.022.

For the compound `O=C1NC(=O)C(c2ccccc2[N+](=O)[O-])=C1Nc1ccc(O)c(Cl)c1` [SB415286], the Dose.FC.LYZ.NS is given as 0.145 log2 fold change in test [1] (setting [7]), 0.012 log2 fold change in test [1] (setting [8]), 0.118 log2 fold change in test [1] (setting [9]) and −0.016 log2 fold change in test [1] (setting [10]). Besides, the Z.LYZ.NS in test [1] (dose 0.08 uM) is listed as 1.262; in test [1] (dose 0.40 uM), 0.101; in test [1] (dose 2.00 uM), 1.024; in test [1] (dose 10.00 uM), −0.136. The Dose.FC.LYZ.S in test [2] (setting [7]) was 0.159 log2 fold change; in test [2] (setting [8]), −0.008 log2 fold change; in test [2] (setting [9]), −0.053 log2 fold change; in test [2] (setting [10]), −0.042 log2 fold change. In addition, the Dose.FC.CTG in the test on ENR+CD organoids (setting [7]) is on record as 0.221 log2 fold change; in the test on ENR+CD organoids (setting [8]), −0.004 log2 fold change; with ENR+CD organoids (setting [9]), −0.097 log2 fold change; in the test on ENR+CD organoids (setting [10]), 0.123 log2 fold change. Besides, the Z.CTG with ENR+CD organoids (dose 0.08 uM) was 0.527; with ENR+CD organoids (dose 0.40 uM) it was −0.011; in the test with ENR+CD organoids (dose 2.00 uM), −0.231; in the test on ENR+CD organoids (dose 10.00 uM) it was 0.293.

`C[C@H](NC(=O)[C@@H](O)c1cc(F)cc(F)c1)C(=O)N[C@@H]1C(=O)N(C)c2ccccc2-c2ccccc21` [LY411575]: the “Dose.FC.LYZ.NS (log2 fold change)” value in test [1] (dose 0.08 uM) is listed as 0.040; in test [1] (dose 0.40 uM), −0.050; in test [1] (dose 2.00 uM), −0.069; in test [1] (dose 10.00 uM), −0.109. Also, the “Z.LYZ.NS (standard z score)” value was 0.347 in test [1] (dose 0.08 uM), −0.434 in test [1] (dose 0.40 uM), −0.598 in test [1] (dose 2.00 uM) and −0.949 in test [1] (dose 10.00 uM). The “Dose.FC.LYZ.S (log2 fold change)” value was 0.024 in test [2] (dose 0.08 uM), 0.041 in test [2] (dose 0.40 uM), −0.091 in test [2] (dose 2.00 uM) and −0.157 in test [2] (dose 10.00 uM). Also, the “Dose.FC.CTG (log2 fold change)” value is on record as 0.035 with ENR+CD organoids (dose 0.08 uM), −0.172 with ENR+CD organoids (dose 0.40 uM), −0.172 in the test with ENR+CD organoids (dose 2.00 uM) and −0.259 in the test on ENR+CD organoids (dose 10.00 uM). Besides, the “Z.CTG (standard z score)” value with ENR+CD organoids (dose 0.08 uM) is 0.083; in the test with ENR+CD organoids (dose 0.40 uM), −0.411; in the test with ENR+CD organoids (dose 2.00 uM), −0.412; in the test on ENR+CD organoids (dose 10.00 uM) it was −0.618.
